The source of these data is patent US9670208B2, “Serine/threonine kinase inhibitors” (Array BioPharma Inc., priority 2013, dated 2017).

For assay [1], the target named is human ERK-2 (Mitogen Activated Kinase 1) (Homo sapiens (Human), UniProt P28482). Briefly: ERK-2 Enzymatic Assay. Format: biochemical. The settings on record: ERK-2 enzyme, 25 μM ATP; single assay or mean of multiple assays; read-out: Biological Example 1 IC50.
For assay [2], the system named is PMA-stimulated P90RSK(Ser380) phosphorylation in HepG2 cells. Briefly: Cellular P90RSK(Ser380) Phosphorylation Assay. Format: cell-based. The note with it: Homo sapiens, 1.5 hours compound incubation, PMA 100 ng/mL, normalized to GAPDH, single assay or mean of multiple assays, read-out: Biological Example 2 IC50.

Chain of human ERK-2 (Mitogen Activated Kinase 1) (P28482 8-360): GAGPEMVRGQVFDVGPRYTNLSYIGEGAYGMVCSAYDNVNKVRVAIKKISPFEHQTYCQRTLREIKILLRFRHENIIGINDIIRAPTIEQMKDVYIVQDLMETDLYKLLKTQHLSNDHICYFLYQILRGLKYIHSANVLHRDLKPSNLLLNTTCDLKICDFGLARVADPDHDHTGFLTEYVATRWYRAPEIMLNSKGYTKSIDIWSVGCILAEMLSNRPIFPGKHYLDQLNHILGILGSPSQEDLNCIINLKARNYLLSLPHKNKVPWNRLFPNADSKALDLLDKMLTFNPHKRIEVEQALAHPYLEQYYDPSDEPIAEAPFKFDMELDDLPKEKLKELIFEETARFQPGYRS

On to `Cn1nccc1Nc1nccc(-c2ccn3c(CS(=O)(=O)c4ccccc4)nnc3c2)n1` [Example 306, N-(1-methyl-1H-pyrazol-5-yl)-4-(3-((phenylsulfonyl)methyl)-[1,2,4]triazolo[4,3-a]pyridin-7-yl)pyrimidin-2-amine], for which the IC50 in assay [1] amounted to 1.8 nM; in assay [2], 63.7 nM.
As for `Cc1ccnc(Cc2nnc3cc(-c4ccnc(Nc5ccnn5C)n4)ccn23)c1` [Example 276, N-(1-methyl-1H-pyrazol-5-yl)-4-(3-((4-methylpyridin-2-yl)methyl)-[1,2,4]triazolo[4,3-a]pyridin-7-yl)pyrimidin-2-amine], the IC50 in assay [1] was determined as 0.9 nM; in assay [2], 51.7 nM.
For `Fc1ccc(Cc2nnc3cc(-c4ccnc(NC5CCOCC5)n4)ccn23)cc1` [Example 402, 4-(3-(4-fluorobenzyl)-[1,2,4]triazolo[4,3-a]pyridin-7-yl)-N-(tetrahydro-2H-pyran-4-yl)pyrimidin-2-amine], the IC50 in assay [1] came to 0.6 nM; in assay [2], 27.4 nM.

Usually IC50 stands for the point on the concentration scale where inhibition reaches its midpoint.
